# Test system: 997726-040-R-J2-PDC tumor spheroids, viability
# Test: Anticancer human tumor 997726-040-R-J2-PDC patient-derived squamous cell lung carcinoma cell line growth inhibition [PI3K]
# Conditions: spheroids with HUVEC and MSC; for IC50: curve of first compound; for viability, T/C: stronger effect = lower value
# In short: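 Three cell types, namely tumor cells, endothelial cells and mesenchymal stem cells, formed each spheroid. Combinations with four PI3K inhibitors were screened at clinically achievable concentrations decreasing by half-log, and spheroid viability was recorded.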
# [1] = second compound 0.0316 µM, first compound 0.0316 µM
# [2] = second compound 0.0316 µM, first compound 0.1 µM
# [3] = second compound 0.1 µM, first compound 0.0316 µM
# [4] = second compound 0.1 µM, first compound 0.1 µM
# [5] = second compound 0.316 µM, first compound 0.0316 µM
# [6] = second compound 0.316 µM, first compound 0.1 µM
# [7] = second compound 1 µM, first compound 0.0316 µM
# [8] = second compound 1 µM, first compound 0.1 µM
# 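Note: spheroids exposed to compounds for seven days before readout.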
smiles,measurement,setting,value
CC(C)n1nc(-c2ccc3oc(N)nc3c2)c2c(N)ncnc21 + Cc1nc(NC(=O)N2CCCC2C(N)=O)sc1-c1ccnc(C(C)(C)C(F)(F)F)c1,IC50,second compound 0.0316 µM,0.0171 µM
same,IC50,second compound 0.1 µM,0.0107 µM
same,IC50,second compound 0.316 µM,0.00353 µM
same,IC50,second compound 1 µM,< 0.000316 µM
same,IC50,second compound 3.16 µM,< 0.000316 µM
same,IC50,second compound 10 µM,< 0.000316 µM
same,"viability, T/C","second compound 0.0316 µM, first compound 0.000316 µM",80.4%
same,"viability, T/C","second compound 0.0316 µM, first compound 0.001 µM",80%
same,"viability, T/C","second compound 0.0316 µM, first compound 0.00316 µM",66.5%
same,"viability, T/C","second compound 0.0316 µM, first compound 0.01 µM",62%
same,"viability, T/C",[1],38.8%
same,"viability, T/C",[2],7.7%
same,"viability, T/C","second compound 0.1 µM, first compound 0.000316 µM",84.9%
same,"viability, T/C","second compound 0.1 µM, first compound 0.001 µM",71.1%
same,"viability, T/C","second compound 0.1 µM, first compound 0.00316 µM",64.4%
same,"viability, T/C","second compound 0.1 µM, first compound 0.01 µM",52.8%
same,"viability, T/C",[3],33.6%
same,"viability, T/C",[4],7.57%
same,"viability, T/C","second compound 0.316 µM, first compound 0.000316 µM",62%
same,"viability, T/C","second compound 0.316 µM, first compound 0.001 µM",61.8%
same,"viability, T/C","second compound 0.316 µM, first compound 0.00316 µM",51.1%
same,"viability, T/C","second compound 0.316 µM, first compound 0.01 µM",36.7%
same,"viability, T/C",[5],28.6%
same,"viability, T/C",[6],6.37%
same,"viability, T/C","second compound 1 µM, first compound 0.000316 µM",43.7%
same,"viability, T/C","second compound 1 µM, first compound 0.001 µM",38.9%
same,"viability, T/C","second compound 1 µM, first compound 0.00316 µM",38.3%
same,"viability, T/C","second compound 1 µM, first compound 0.01 µM",32.7%
same,"viability, T/C",[7],21.3%
same,"viability, T/C",[8],3.77%
same,"viability, T/C","second compound 3.16 µM, first compound 0.000316 µM",32.4%
same,"viability, T/C","second compound 3.16 µM, first compound 0.001 µM",31.8%
same,"viability, T/C","second compound 3.16 µM, first compound 0.00316 µM",27.9%
same,"viability, T/C","second compound 3.16 µM, first compound 0.01 µM",24.5%
same,"viability, T/C","second compound 3.16 µM, first compound 0.0316 µM",9.73%
same,"viability, T/C","second compound 3.16 µM, first compound 0.1 µM",2.15%
same,"viability, T/C","second compound 10 µM, first compound 0.000316 µM",21%
same,"viability, T/C","second compound 10 µM, first compound 0.001 µM",11.3%
same,"viability, T/C","second compound 10 µM, first compound 0.00316 µM",10.4%
same,"viability, T/C","second compound 10 µM, first compound 0.01 µM",8.32%
same,"viability, T/C","second compound 10 µM, first compound 0.0316 µM",4.53%
same,"viability, T/C","second compound 10 µM, first compound 0.1 µM",1.59%
CCCS(=O)(=O)Nc1ccc(F)c(C(=O)c2c[nH]c3ncc(-c4ccc(Cl)cc4)cc23)c1F + COc1c(OCCCN2CCOCC2)ccc2c3n(c(=NC(=O)c4cnc(N)nc4)nc12)CCN3,IC50,second compound 0.00316 µM,6.61 µM
same,IC50,second compound 0.01 µM,5.36 µM
same,IC50,second compound 0.0316 µM,0.0316 µM
same,IC50,second compound 0.1 µM,< 0.0316 µM
same,IC50,second compound 0.316 µM,< 0.0316 µM
same,IC50,second compound 1 µM,< 0.0316 µM
same,"viability, T/C","second compound 0.00316 µM, first compound 0.0316 µM",68.1%
same,"viability, T/C","second compound 0.00316 µM, first compound 0.1 µM",91.1%
same,"viability, T/C","second compound 0.00316 µM, first compound 0.316 µM",101%
same,"viability, T/C","second compound 0.00316 µM, first compound 1 µM",114%
same,"viability, T/C","second compound 0.00316 µM, first compound 3.16 µM",136%
same,"viability, T/C","second compound 0.00316 µM, first compound 10 µM",20.7%
same,"viability, T/C","second compound 0.01 µM, first compound 0.0316 µM",52.6%
same,"viability, T/C","second compound 0.01 µM, first compound 0.1 µM",70.3%
same,"viability, T/C","second compound 0.01 µM, first compound 0.316 µM",69.6%
same,"viability, T/C","second compound 0.01 µM, first compound 1 µM",76%
same,"viability, T/C","second compound 0.01 µM, first compound 3.16 µM",94%
same,"viability, T/C","second compound 0.01 µM, first compound 10 µM",23.2%
same,"viability, T/C",[1],39.5%
same,"viability, T/C",[2],41.8%
same,"viability, T/C","second compound 0.0316 µM, first compound 0.316 µM",44.2%
same,"viability, T/C","second compound 0.0316 µM, first compound 1 µM",49.9%
same,"viability, T/C","second compound 0.0316 µM, first compound 3.16 µM",57.1%
same,"viability, T/C","second compound 0.0316 µM, first compound 10 µM",19.6%
same,"viability, T/C",[3],24%
same,"viability, T/C",[4],24.6%
same,"viability, T/C","second compound 0.1 µM, first compound 0.316 µM",25.3%
same,"viability, T/C","second compound 0.1 µM, first compound 1 µM",28.4%
same,"viability, T/C","second compound 0.1 µM, first compound 3.16 µM",28%
same,"viability, T/C","second compound 0.1 µM, first compound 10 µM",16.5%
same,"viability, T/C",[5],5.93%
same,"viability, T/C",[6],6.12%
same,"viability, T/C","second compound 0.316 µM, first compound 0.316 µM",5.74%
same,"viability, T/C","second compound 0.316 µM, first compound 1 µM",7.01%
same,"viability, T/C","second compound 0.316 µM, first compound 3.16 µM",8.12%
same,"viability, T/C","second compound 0.316 µM, first compound 10 µM",7.64%
same,"viability, T/C",[7],1.54%
same,"viability, T/C",[8],1.08%
same,"viability, T/C","second compound 1 µM, first compound 0.316 µM",1.77%
same,"viability, T/C","second compound 1 µM, first compound 1 µM",1.68%
same,"viability, T/C","second compound 1 µM, first compound 3.16 µM",2.43%
same,"viability, T/C","second compound 1 µM, first compound 10 µM",1.82%

# — PubChem BioAssay AID1963964 (Molecular Pharmacology Branch, DTP, NCI, 2024)
